From patent US8815875B2 (Merck Sharp & Dohme Corp., priority 2008, dated 2014)

Each compound was assayed against FABP4 (Homo sapiens, UniProt P15090) (assay: TdF (Temperature Dependence Fluorescence) assay, thermal shift, FABP4).
Format: binding
Source text: TdF (Temperature Dependence Fluorescence) Assay for FABP3 and FABP4
The TdF assay was mainly conducted in the 96-well based CHROMO-4 real time fluorescence plate reader (BioRad). The Sypro Orange (Sigma-Aldrich), environmentally sensitive fluorescence dye, was used to monitor the protein folding-unfolding transition. Protein-ligand binding was gauged by the change (or shift) in the unfolding transition temperature (ΔTm) acquired at protein alone with respect to protein in the presence of ligand of interest.
The compound of interest was first prepared in DMSO stock (typical concentration: 10 mM). […] Final percentage of DMSO resided in the sample was 2%. The sample plate was heated from 30° C. to 90° C. with thermal ramping rate of 1° C./min. The fluorescence signals were acquired with excitation and emission wavelengths centered at 490 and 560 nm respectively. The instrument thermal stability was ±0.2° C.
Theoretical basis for TdF-based ligand binding affinity constant
In brief, the binding constant of the ligand at the Tm is expressed as below:
[formula] where To is the midpoint of unfolding for unliganded protein and Tm is the midpoint of unfolding in presence of ligand. [LTm] is free ligand at Tm. The ΔHu and ΔCpu are the enthalpy of unfolding and heat capacity change of unfolding for the protein respectively.
The nonlinear regression fitting in general readily reaches convergence by properly constraining the initial values for the fitting parameters (e.g. the initial “guess” for the ΔHu was constrained to 120 kcal/mol; initial Yn and mn were set to 1 and zero to best represent the melting curve along the low temperature region; negative slope of −0.5 was initially chosen for mu; initial Tm was also constrained to 50° C.).
[formula] (see Brandts et al and Mayhood et al, shown above) where ΔHL (T) is the van't Hoff enthalpy of ligand binding at temperature T and ΔCpL is the heat capacity upon ligand binding. For simplicity, the ΔCpL and ΔHL (T) were set to zero and −7 kcal/mol respectively. […] TdCD (Temperature-dependent Circular Dichroism) Assay for FABP3/4/5

Sequence of FABP4 (P15090 whole entry, species assumed): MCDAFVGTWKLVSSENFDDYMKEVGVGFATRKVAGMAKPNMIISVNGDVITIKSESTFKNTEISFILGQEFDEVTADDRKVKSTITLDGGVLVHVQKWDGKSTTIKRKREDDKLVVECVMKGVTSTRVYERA

Compound | FABP4 TdF Kd | Kd [nM]
Cc1c(Cl)cccc1OC(C)c1cc(=O)n2nc(-c3ccccc3)nc2[nH]1 (single isomer, unassigned) [37-6] | B (0.5 ≦ B < 0.001 μM) | –
Cc1c(Cl)cccc1OC(C)c1cc(=O)n2nc(-c3ccccc3)nc2[nH]1 (single isomer, unassigned) [37-7] | B (0.5 ≦ B < 0.001 μM) | –
CCc1ccc(OCc2cc(=O)n3nc(-c4ccccc4)nc3[nH]2)cc1 [1-3] | B (0.5 ≦ B < 0.001 μM) | –
O=c1cc(COc2cccc3c2CCC3)[nH]c2nc(-c3ccccc3)nn12 [1-6] | B (0.5 ≦ B < 0.001 μM) | –
O=c1cc(COc2ccc(C(F)(F)F)cc2)[nH]c2nc(-c3ccccc3)nn12 [1-7] | – | > 500
O=c1cc(COc2ccc(Br)c(Cl)c2)[nH]c2nc(-c3ccccc3)nn12 [1-8] | – | > 500
O=c1cc(COC2CCc3ccccc32)[nH]c2nc(-c3ccccc3)nn12 (centres unmarked) [1-9] | B (0.5 ≦ B < 0.001 μM) | –
O=c1cc(COc2cccc3c2CCCC3)[nH]c2nc(-c3ccccc3)nn12 [1-10] | B (0.5 ≦ B < 0.001 μM) | –
O=c1cc(Cn2ccc3c(Cl)cccc32)[nH]c2nc(-c3ccccc3)nn12 [1-11] | B (0.5 ≦ B < 0.001 μM) | –
O=c1cc(Cn2ncc3ccccc32)[nH]c2nc(-c3ccccc3)nn12 [1-12] | – | > 500
O=c1cc(CN2CCCc3ccccc32)[nH]c2nc(-c3ccccc3)nn12 [1-13] | B (0.5 ≦ B < 0.001 μM) | –
O=c1cc(CN2Cc3ccccc3C2)[nH]c2nc(-c3ccccc3)nn12 [1-14] | – | > 500
CN(Cc1cc(=O)n2nc(-c3ccccc3)nc2[nH]1)C1CCCCC1 [1-15] | – | > 500
CN(Cc1cc(=O)n2nc(-c3ccccc3)nc2[nH]1)c1cccc(Br)c1 [1-16] | B (0.5 ≦ B < 0.001 μM) | –
O=c1cc(COc2ccccc2OC(F)(F)F)[nH]c2nc(-c3ccccc3)nn12 [1-18] | B (0.5 ≦ B < 0.001 μM) | –
O=c1cc(COc2cccnc2)[nH]c2nc(-c3ccccc3)nn12 [1-19] | – | > 500
O=c1cc(COC2CCC2)[nH]c2nc(-c3ccccc3)nn12 [1-20] | – | > 500
O=c1cc(COC2CCCCC2)[nH]c2nc(-c3ccccc3)nn12 [1-21] | B (0.5 ≦ B < 0.001 μM) | –
Cn1nc(C(F)(F)F)cc1OCc1cc(=O)n2nc(-c3ccccc3)nc2[nH]1 [1-22] | – | > 500
N#Cc1cc(F)cc(OCc2cc(=O)n3nc(-c4ccccc4)nc3[nH]2)c1 [1-23] | – | > 500
N#Cc1c(Cl)cccc1OCc1cc(=O)n2nc(-c3ccccc3)nc2[nH]1 [1-24] | B (0.5 ≦ B < 0.001 μM) | –
CC(C)c1cccc(OCc2cc(=O)n3nc(-c4ccccc4)nc3[nH]2)c1 [1-25] | – | > 500
Cc1cccc(OCc2cc(=O)n3nc(-c4ccccc4)nc3[nH]2)c1C [1-26] | – | > 500
Cc1ccc2ccccc2c1OCc1cc(=O)n2nc(-c3ccccc3)nc2[nH]1 [1-27] | B (0.5 ≦ B < 0.001 μM) | –
CN(C)c1cccc(OCc2cc(=O)n3nc(-c4ccccc4)nc3[nH]2)c1 [1-28] | – | > 500
COc1ccc2c(c1)CN(Cc1cc(=O)n3nc(-c4ccccc4)nc3[nH]1)C2=O [1-29] | – | > 500

Compound | FABP4 TdF Kd | Kd [nM]
O=c1cc(COc2ccc(I)cc2)[nH]c2nc(-c3ccccc3)nn12 [1-30] | – | > 500
O=c1cc(COc2c(Cl)ccc(Cl)c2Cl)[nH]c2nc(-c3ccccc3)nn12 [1-31] | B (0.5 ≦ B < 0.001 μM) | –
COc1cc(OC)cc(OCc2cc(=O)n3nc(-c4ccccc4)nc3[nH]2)c1 [1-32] | B (0.5 ≦ B < 0.001 μM) | –
CCc1cccc(C)c1OCc1cc(=O)n2nc(-c3ccccc3)nc2[nH]1 [1-33] | B (0.5 ≦ B < 0.001 μM) | –
Cc1nc(-c2ccc(OCc3cc(=O)n4nc(-c5ccccc5)nc4[nH]3)c(F)c2)cs1 [1-34] | – | > 500
Cc1ccc(C(C)C)cc1N(C)Cc1cc(=O)n2nc(-c3ccccc3)nc2[nH]1 [1-35] | B (0.5 ≦ B < 0.001 μM) | –
O=c1cc(CN2CCOc3ccccc32)[nH]c2nc(-c3ccccc3)nn12 [1-36] | – | > 500
Cc1cc(OCc2cc(=O)n3nc(-c4ccccc4)nc3[nH]2)n(C)n1 [1-37] | – | > 500
Cc1ccc(Br)c2ccn(Cc3cc(=O)n4nc(-c5ccccc5)nc4[nH]3)c12 [1-38] | – | > 500
Cc1c(F)cccc1OCc1cc(=O)n2nc(-c3ccccc3)nc2[nH]1 [1-39] | B (0.5 ≦ B < 0.001 μM) | –
CC(C)(C)OCc1cc(=O)n2nc(-c3ccccc3)nc2[nH]1 [1-40] | – | > 500
COc1ccc(OCc2cc(=O)n3nc(-c4ccccc4)nc3[nH]2)cc1OC [1-41] | – | > 500
O=c1cc(COC2CCNCC2)[nH]c2nc(-c3ccccc3)nn12 [1-42] | – | > 500
O=c1cc(CN2CCc3ccccc32)[nH]c2nc(-c3ccccc3)nn12 [1-43] | – | > 500
Cc1csc(-c2ccc(OCc3cc(=O)n4nc(-c5ccccc5)nc4[nH]3)cc2)n1 [1-44] | – | > 500
CN1CCC(OCc2cc(=O)n3nc(-c4ccccc4)nc3[nH]2)CC1 [1-45] | – | > 500
O=c1cc(COc2ccccc2)[nH]c2nc(-c3ccccc3)nn12 [1-46] | – | > 500
O=c1cc(COc2ccccn2)[nH]c2nc(-c3ccccc3)nn12 [1-47] | – | > 500
O=c1ccccn1Cc1cc(=O)n2nc(-c3ccccc3)nc2[nH]1 [1-48] | – | > 500
CC(=O)N1CCC(OCc2cc(=O)n3nc(-c4ccccc4)nc3[nH]2)CC1 [1-49] | – | > 500
CN(Cc1cc(=O)n2nc(-c3ccccc3)nc2[nH]1)c1cccnc1Br [1-51] | – | > 500
O=c1cc(CNC2CCc3c(Cl)cccc32)[nH]c2nc(-c3ccccc3)nn12 (centres unmarked) [1-52] | B (0.5 ≦ B < 0.001 μM) | –
CN(Cc1cc(=O)n2nc(-c3ccccc3)nc2[nH]1)C1Cc2ccccc2C1 [1-54] | – | > 500
COc1c(Cl)cccc1OCc1cc(=O)n2nc(-c3ccccc3)nc2[nH]1 [1-55] | B (0.5 ≦ B < 0.001 μM) | –
O=c1cc(CN2CCCC2Cc2ccc(F)cc2)[nH]c2nc(-c3ccccc3)nn12 (centres unmarked) [1-56] | – | > 500
O=c1cc(CN2CCCC2Cc2cccc(Cl)c2)[nH]c2nc(-c3ccccc3)nn12 (centres unmarked) [1-57] | B (0.5 ≦ B < 0.001 μM) | –

Compound | FABP4 TdF Kd | Kd [nM]
COc1cccc(C)c1OCc1cc(=O)n2nc(-c3ccccc3)nc2[nH]1 [1-58] | B (0.5 ≦ B < 0.001 μM) | –
O=c1cc(COc2cccc(C(F)(F)F)c2)[nH]c2nc(-c3ccccc3)nn12 [1-59] | – | > 500
CCc1cccc(OCc2cc(=O)n3nc(-c4ccccc4)nc3[nH]2)c1 [1-60] | B (0.5 ≦ B < 0.001 μM) | –
O=c1cc(COc2ccc(Br)cc2)[nH]c2nc(-c3ccccc3)nn12 [1-61] | – | > 500
O=c1cc(COc2ccccc2C(F)(F)F)[nH]c2nc(-c3ccccc3)nn12 [1-62] | B (0.5 ≦ B < 0.001 μM) | –
Cc1ccc(OCc2cc(=O)n3nc(-c4ccccc4)nc3[nH]2)cc1C [1-63] | B (0.5 ≦ B < 0.001 μM) | –
O=c1cc(COc2cccc(OC(F)(F)F)c2)[nH]c2nc(-c3ccccc3)nn12 [1-64] | – | > 500
O=c1cc(COc2ccc(OC(F)(F)F)cc2)[nH]c2nc(-c3ccccc3)nn12 [1-65] | – | > 500
CC(C)c1ccccc1OCc1cc(=O)n2nc(-c3ccccc3)nc2[nH]1 [1-66] | B (0.5 ≦ B < 0.001 μM) | –
O=c1cc(COc2cccc(Cl)c2Cl)[nH]c2nc(-c3ccccc3)nn12 [1-67] | B (0.5 ≦ B < 0.001 μM) | –
CCc1ccc(OCc2cc(=O)n3nc(-c4ccccc4)nc3[nH]2)c(C(C)(C)C)c1 [1-68] | B (0.5 ≦ B < 0.001 μM) | –
CCc1ccc(OCc2cc(=O)n3nc(-c4ccccc4)nc3[nH]2)c(OC)c1 [1-69] | B (0.5 ≦ B < 0.001 μM) | –
Cc1cc(OCc2cc(=O)n3nc(-c4ccccc4)nc3[nH]2)ccc1C(C)C [1-70] | B (0.5 ≦ B < 0.001 μM) | –
CC(C)(C)c1ccc(OCc2cc(=O)n3nc(-c4ccccc4)nc3[nH]2)c(Cl)c1 [1-71] | – | > 500
COc1cc(CC(C)=O)ccc1OCc1cc(=O)n2nc(-c3ccccc3)nc2[nH]1 [1-72] | – | > 500
O=c1cc(COc2ccccc2Br)[nH]c2nc(-c3ccccc3)nn12 [1-73] | B (0.5 ≦ B < 0.001 μM) | –
Cc1cc(C(C)(C)C)ccc1OCc1cc(=O)n2nc(-c3ccccc3)nc2[nH]1 [1-74] | – | > 500
O=c1cc(COc2cccc3cnccc23)[nH]c2nc(-c3ccccc3)nn12 [1-75] | – | > 500
O=c1cc(COC2CCOCC2)[nH]c2nc(-c3ccccc3)nn12 [1-76] | – | > 500
O=c1cc(CN2CC[S+]([O-])CC2)[nH]c2nc(-c3ccccc3)nn12 [1-77] | – | > 500
O=c1cc(CN2CCC(Cc3ccc(Cl)cc3)CC2)[nH]c2nc(-c3ccccc3)nn12 [1-78] | – | > 500
O=c1cc(COC2CCSCC2)[nH]c2nc(-c3ccccc3)nn12 [1-79] | – | > 500
O=c1cc(COc2cccc3ncccc23)[nH]c2nc(-c3ccccc3)nn12 [1-80] | B (0.5 ≦ B < 0.001 μM) | –
O=c1cc(CN2CCOc3c(Br)cccc32)[nH]c2nc(-c3ccccc3)nn12 [1-81] | B (0.5 ≦ B < 0.001 μM) | –
O=c1cc(CN2CCc3ccc(Br)cc32)[nH]c2nc(-c3ccccc3)nn12 [1-82] | B (0.5 ≦ B < 0.001 μM) | –
